Assay in all cases: AK assay 384-well format, Prestwick library screening
The subject of assay [1] is E. faecium. Type of assay: cell-based, Enterococcus faecium. To be noted: 50 μM final drug concentration; for fold induction at 50 µM: Enterococcus faecium, 3 h.
Assay [2] deals with S. aureus strain USA300-0114. The format is cell-based, Staphylococcus aureus. The settings on record: 50 μM final drug concentration; for fold induction at 50 µM: Staphylococcus aureus, USA300, 3 h.
In assay [3] the test system is K. pneumoniae. Type of assay: cell-based, Klebsiella pneumoniae. To be noted: 50 μM final drug concentration; for fold induction at 50 µM: Klebsiella pneumoniae, 3 h.
Assay [4] deals with A. baumannii strain 98-37-09. Type of assay: cell-based, Acinetobacter baumannii. The settings on record: 50 μM final drug concentration; for fold induction at 50 µM: Acinetobacter baumannii, 983709, 3 h.
Assay [5] deals with P. aeruginosa. Type of assay: cell-based, Pseudomonas aeruginosa. To be noted: 50 μM final drug concentration; for fold induction at 50 µM: Pseudomonas aeruginosa, 3 h.
The test system of assay [6] is E. cloacae. The format is cell-based, Enterobacter cloacae. The settings on record: 50 μM final drug concentration; for fold induction at 50 µM: Enterobacter cloacae, 3 h.
Assay [7] concerns E. coli. Type of assay: cell-based, Escherichia coli. To be noted: 50 μM final drug concentration; for fold induction at 50 µM: Escherichia coli, 3 h.
Where [8] appears, read: planktonic E. faecium, positive cutoff 3-fold increase, read-out: AK-based Prestwick library screening result, E. faecium (fold increase in extracellular AK activity).
[9] abbreviates: planktonic S. aureus, positive cutoff 3-fold increase, read-out: AK-based Prestwick library screening result, S. aureus (fold increase in extracellular AK activity).
The mark [10] stands for this setting: planktonic K. pneumoniae, positive cutoff 3-fold increase, read-out: AK-based Prestwick library screening result, K. pneumoniae (fold increase in extracellular AK activity).
The mark [11] stands for this setting: planktonic A. baumannii, positive cutoff 3-fold increase, read-out: AK-based Prestwick library screening result, A. baumannii (fold increase in extracellular AK activity).
Setting [12] is: planktonic P. aeruginosa, positive cutoff 3-fold increase, read-out: AK-based Prestwick library screening result, P. aeruginosa (fold increase in extracellular AK activity).
The mark [13] stands for this setting: planktonic E. cloacae, positive cutoff 3-fold increase, read-out: AK-based Prestwick library screening result, E. cloacae (fold increase in extracellular AK activity).
The mark [14] stands for this setting: planktonic E. coli, positive cutoff 3-fold increase, read-out: AK-based Prestwick library screening result, E. coli (fold increase in extracellular AK activity).
Setting [15] is: planktonic, cutoff for positive 3-fold increase, read-out: AK-based Prestwick Library Screening Results, E. faecium (fold increase in extracellular AK activity).
Setting [16] is: planktonic, cutoff for positive 3-fold increase, read-out: AK-based Prestwick Library Screening Results, S. aureus (fold increase in extracellular AK activity).
[17] abbreviates: planktonic, cutoff for positive 3-fold increase, read-out: AK-based Prestwick Library Screening Results, K. pneumoniae (fold increase in extracellular AK activity).
[18] abbreviates: planktonic, cutoff for positive 3-fold increase, read-out: AK-based Prestwick Library Screening Results, A. baumannii (fold increase in extracellular AK activity).
The mark [19] stands for this setting: planktonic, cutoff for positive 3-fold increase, read-out: AK-based Prestwick Library Screening Results, P. aeruginosa (fold increase in extracellular AK activity).
Where [20] appears, read: planktonic, cutoff for positive 3-fold increase, read-out: AK-based Prestwick Library Screening Results, E. cloacae (fold increase in extracellular AK activity).
Setting [21] is: planktonic, cutoff for positive 3-fold increase, read-out: AK-based Prestwick Library Screening Results, E. coli (fold increase in extracellular AK activity).

The source of these data is US10004701B2, “Methods and compositions for treating infection” (UNIVERSITY OF ROCHESTER, priority 2012, dated 2018).

The structures appear in SMILES notation. Where a name gives a salt, the structure may show the parent alone. Read-outs that look alike come from different tables or passages of the source.

With `CCC1(c2ccccc2)NC(=O)N(C)C1=O` (stereo not drawn) [Mephenytoin], the fold induction at 50 µM in assay [1] (setting [8]) came to 1; in assay [2] (setting [9]) it was 1.1; in assay [3] (setting [10]) it was 1; in assay [4] (setting [11]) it was 1.3; in assay [5] (setting [12]), 1; in assay [6] (setting [13]), 1.3. Besides, the fold induction at 50 µM in assay [7] (setting [14]) is 1.1.

On to `Nc1nc(O)c2ncn(COC(CO)CO)c2n1` [Ganciclovir], for which the fold induction at 50 µM in assay [1] (planktonic, cutoff for positive-scoring molecules 3-fold increase, read-out: AK-based Prestwick Library Screening Results, E. faecium (fold increase in extracellular AK activity)) came out at 0.9; in assay [2] (planktonic, cutoff for positive-scoring molecules 3-fold increase, read-out: AK-based Prestwick Library Screening Results, S. aureus (fold increase in extracellular AK activity)), 0.9; in assay [3] (planktonic, cutoff for positive-scoring molecules 3-fold increase, read-out: AK-based Prestwick Library Screening Results, K. pneumoniae (fold increase in extracellular AK activity)), 0.7; in assay [4] (planktonic, cutoff for positive-scoring molecules 3-fold increase, read-out: AK-based Prestwick Library Screening Results, A. baumannii (fold increase in extracellular AK activity)), 0.8; in assay [5] (planktonic, cutoff for positive-scoring molecules 3-fold increase, read-out: AK-based Prestwick Library Screening Results, P. aeruginosa (fold increase in extracellular AK activity)), 0.9; in assay [6] (planktonic, cutoff for positive-scoring molecules 3-fold increase, read-out: AK-based Prestwick Library Screening Results, E. cloacae (fold increase in extracellular AK activity)), 1.4. In assay [7] (planktonic, cutoff for positive-scoring molecules 3-fold increase, read-out: AK-based Prestwick Library Screening Results, E. coli (fold increase in extracellular AK activity)), the fold induction at 50 µM is 0.9.

`CC(=O)Nc1nnc(S(N)(=O)=O)s1` [Acetazolamide]: the fold induction at 50 µM in assay [1] (384-well format, cutoff for positive-scoring molecules 3-fold increase, read-out: AK-based Prestwick Library Screening Results, E. faecium (increase in extracellular AK activity)) stood at 0.9; in assay [2] (384-well format, cutoff for positive-scoring molecules 3-fold increase, read-out: AK-based Prestwick Library Screening Results, S. aureus (increase in extracellular AK activity)) it was 0.4; in assay [3] (384-well format, cutoff for positive-scoring molecules 3-fold increase, read-out: AK-based Prestwick Library Screening Results, K. pneumoniae (increase in extracellular AK activity)), 0.4; in assay [4] (384-well format, cutoff for positive-scoring molecules 3-fold increase, read-out: AK-based Prestwick Library Screening Results, A. baumannii (increase in extracellular AK activity)) it was 0.4; in assay [5] (384-well format, cutoff for positive-scoring molecules 3-fold increase, read-out: AK-based Prestwick Library Screening Results, P. aeruginosa (increase in extracellular AK activity)), 0.3; in assay [6] (384-well format, cutoff for positive-scoring molecules 3-fold increase, read-out: AK-based Prestwick Library Screening Results, E. cloacae (increase in extracellular AK activity)) it was 0.3. For the same compound, the fold induction at 50 µM in assay [7] (384-well format, cutoff for positive-scoring molecules 3-fold increase, read-out: AK-based Prestwick Library Screening Results, E. coli (increase in extracellular AK activity)) came to 0.4.

On to `C[C@]12C[C@H](O)[C@H]3[C@@H](CCC4=CC(=O)CC[C@@]43C)[C@@H]1CC[C@@H]2C(=O)CO` [Corticosterone], for which the fold induction at 50 µM in assay [1] (planktonic E. faecium, cutoff for positive-scoring molecules 3-fold increase, read-out: AK-based Prestwick Library Screening Results, E. faecium (increase in extracellular AK activity)) came to 0.9; in assay [2] (planktonic S. aureus, cutoff for positive-scoring molecules 3-fold increase, read-out: AK-based Prestwick Library Screening Results, S. aureus (increase in extracellular AK activity)) it was 0.6; in assay [3] (planktonic K. pneumoniae, cutoff for positive-scoring molecules 3-fold increase, read-out: AK-based Prestwick Library Screening Results, K. pneumoniae (increase in extracellular AK activity)), 0.7; in assay [4] (planktonic A. baumannii, cutoff for positive-scoring molecules 3-fold increase, read-out: AK-based Prestwick Library Screening Results, A. baumannii (increase in extracellular AK activity)), 0.9; in assay [5] (planktonic P. aeruginosa, cutoff for positive-scoring molecules 3-fold increase, read-out: AK-based Prestwick Library Screening Results, P. aeruginosa (increase in extracellular AK activity)), 0.8; in assay [6] (planktonic E. cloacae, cutoff for positive-scoring molecules 3-fold increase, read-out: AK-based Prestwick Library Screening Results, E. cloacae (increase in extracellular AK activity)), 1.2. Further, the fold induction at 50 µM in assay [7] (planktonic E. coli, cutoff for positive-scoring molecules 3-fold increase, read-out: AK-based Prestwick Library Screening Results, E. coli (increase in extracellular AK activity)) is 0.9.

For the compound `N=C(N)N1CCc2ccccc2C1` [Debrisoquin sulfate], the fold induction at 50 µM in assay [1] (setting [15]) came out at 1; in assay [2] (setting [16]), 0.9; in assay [3] (setting [17]), 0.8; in assay [4] (setting [18]), 0.9; in assay [5] (setting [19]), 1; in assay [6] (setting [20]), 1.7. Besides, the fold induction at 50 µM in assay [7] (setting [21]) amounted to 1.2.

With `Cc1c2ccncc2c(C)c2c1[nH]c1ccccc12` [Ellipticine], the fold induction at 50 µM was found to be 1.3 in assay [1] (setting [15]); 0.8 in assay [2] (setting [16]); 1 in assay [3] (setting [17]); 4.1 in assay [4] (setting [18]); 1.2 in assay [5] (setting [19]); 1.8 in assay [6] (setting [20]). Besides, the fold induction at 50 µM in assay [7] (setting [21]) was 1.3.

`C[C@H](N)[C@H](O)c1ccc(O)c(O)c1` [Levonordefrin]: the fold induction at 50 µM came to 1 in assay [1] (planktonic, […], read-out: AK-based Prestwick Library Screening Results, E. faecium (fold increase in extracellular AK activity)); 0.6 in assay [2] (planktonic, […], read-out: AK-based Prestwick Library Screening Results, S. aureus (fold increase in extracellular AK activity)); 0.8 in assay [3] (planktonic, […], read-out: AK-based Prestwick Library Screening Results, K. pneumoniae (fold increase in extracellular AK activity)); 0.8 in assay [4] (planktonic, […], read-out: AK-based Prestwick Library Screening Results, A. baumannii (fold increase in extracellular AK activity)); 0.7 in assay [5] (planktonic, […], read-out: AK-based Prestwick Library Screening Results, P. aeruginosa (fold increase in extracellular AK activity)); 0.7 in assay [6] (planktonic, […], read-out: AK-based Prestwick Library Screening Results, E. cloacae (fold increase in extracellular AK activity)). The fold induction at 50 µM in assay [7] (planktonic, […], read-out: AK-based Prestwick Library Screening Results, E. coli (fold increase in extracellular AK activity)) came to 0.7.

As for `CCN[C@H]1C[C@H](C)S(=O)(=O)c2sc(S(N)(=O)=O)cc21` [Dorzolamide hydrochloride], the fold induction at 50 µM in assay [1] (setting [8]) was 2.3; in assay [2] (setting [9]), 1; in assay [3] (setting [10]) it was 1.1; in assay [4] (setting [11]), 1.2; in assay [5] (setting [12]), 0.9; in assay [6] (setting [13]), 1.3. The fold induction at 50 µM in assay [7] (setting [14]) came to 1.1.

With `CN1C[C@H](CO)C=C2c3cccc4[nH]cc(c34)C[C@H]21` [Lysergol], the “AK-based Prestwick Library Screening Results, E. faecium (fold increase in extracellular AK activity)” value in assay [1] (planktonic, […]) is reported as 0.9. Also, in assay [2] (planktonic, […]), the “AK-based Prestwick Library Screening Results, S. aureus (fold increase in extracellular AK activity)” value came to 0.9. Also, in assay [3] (planktonic, […]), the “AK-based Prestwick Library Screening Results, K. pneumoniae (fold increase in extracellular AK activity)” value was 0.8. For the same compound, the “AK-based Prestwick Library Screening Results, A. baumannii (fold increase in extracellular AK activity)” value in assay [4] (planktonic, […]) is recorded as 1.0. Also, the “AK-based Prestwick Library Screening Results, P. aeruginosa (fold increase in extracellular AK activity)” value in assay [5] (planktonic, […]) was 1.1. In assay [6] (planktonic, […]), the “AK-based Prestwick Library Screening Results, E. cloacae (fold increase in extracellular AK activity)” value came out at 1.6. For the same compound, in assay [7] (planktonic, […]), the “AK-based Prestwick Library Screening Results, E. coli (fold increase in extracellular AK activity)” value came out at 1.1.
